Consider 13 compounds from patent US6410558B1, “Fungicides for the control of take-all disease of plants” (Monsanto Technology LLC, priority 1991, dated 2002).

Where only a bound is given, the exact number is not on record here.

System in one data set: not given
Assay: not given
Details: not given
Regarding `CC(CCl)NC(=O)c1c(Cl)cccc1[Si](C)(C)C` (centres unmarked) [Example 171, 2-Chloro-N-(2-chloro-1-methylethyl)-6-(trimethylsilyl)benzamide], the melting point (usually the temperature of the solid-liquid transition) was in the range of 150 to 151 °C.
Still for that read-out and setting: in the case of `CC1(c2cccc(F)c2C(=O)NCCCl)CCC1` [Example 199, N-(2-Chloroethyl)-2-fluoro-6-(1-methylcyclobutyl)benzamide] it was 108 to 110 °C.

Another data set concerns Ggt. Nature of the data set: In vivo Assay: control of Ggt on wheat grown in pots of Ggt-infested soil, root disease rating. Further details: species or system Gaeumannomyces graminis var. tritici. Conditions: Gaeumannomyces graminis, 672 h; 0.5 mg active ingredient per pot; 'Bergen' or 'Anza' wheat in Ggt-infested soil; after four weeks; vs untreated control; read-out: In vivo, percent disease control. Put shortly:
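Wheat ('Bergen' or 'Anza') seeds in soil infested with Ggt-colonised oats (4% v/v) treated at 0.5 mg active ingredient per pot in acetone/water with Tween 20; five pots per treatment. After four weeks, seminal roots rated 0–5; trimmed mean of three replicates converted to percent disease control versus untreated.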
For `CC(CCl)NC(=O)c1c(Cl)cccc1[Si](C)(C)C` (centres unmarked) [Example 171, 2-Chloro-N-(2-chloro-1-methylethyl)-6-(trimethylsilyl)benzamide], the pest or weed control at 0.5 mg/pot turned out to be 87%.
On the same count and under the same terms, in the case of `CCN(C(=O)c1c(Cl)cccc1[Si](C)(C)C)C(OC)C(C)(C)C` (centres unmarked) [Example 201, 2-Chloro-N-ethyl-N-(1-methoxy-2,2-dimethylpropyl)-6-(trimethylsilyl)benzamide] it was 65%.
Still for that read-out and setting: the result for `C=C[Si](C)(c1ccccc1)c1cccc(Cl)c1C(=O)NCC` (centres unmarked) [Example 202, 2-Chloro-6-(ethenylmethylphenylsilyl)-N-ethylbenzamide] reads 3%; that for `C=CCONC(=O)c1c([Si](C)(C)C)ccc(Cl)c1Cl` [Example 204, 2,3-Dichloro-N-(2-propenyloxy)-6-(trimethylsilyl)benzamide], 43%; that for `CCNC(=O)c1c(Cl)cccc1[Si](C)(C)CBr` [Example 210, 2-[(Bromomethyl)dimethylsilyl]-6-chloro-N-ethyl-benzamide], 74%.
Still for that read-out and setting: in the case of `CCN(C(=O)OC(C)(C)C)C(=O)c1c(Cl)cccc1[Si](C)(C)C` [Example 211, [2-Chloro-6-(trimethylsilyl)benzoyl]ethylcarbamic acid, 1,1-dimethylethyl ester] it was 96%.
In the case of `CCNC(=O)c1c(Cl)cccc1[Si](C)(C)CC` [Example 212, 2-Chloro-N-ethyl-6-(ethyldimethylsilyl)benzamide], the pest or weed control at 0.5 mg/pot came to 96%.
For the compound `CCNC(=O)c1cc(Cl)ccc1[Si](C)(C)C` [Example 213, 5-Chloro-N-ethyl-2-(trimethylsilyl)benzamide], the pest or weed control at 0.5 mg/pot came to 87%.
Still for that read-out and setting: the result for `CCNC(=O)c1c(Cl)ccc([N+](=O)[O-])c1[Si](C)(C)C` [Example 215, 6-Chloro-N-ethyl-3-nitro-2-(trimethylsilyl)benzamide] reads 57%.
Turning to `CCNC(=O)c1c([Si](C)(C)C)ccc([N+](=O)[O-])c1Cl` [Example 216, 2-Chloro-N-ethyl-3-nitro-6-(trimethylsilyl)benzamide], the pest or weed control at 0.5 mg/pot is 68%.
On the same count and under the same terms, the result for `CCNC(=O)c1cc(N)ccc1[Si](C)(C)C` [Example 217, 5-Amino-N-ethyl-2-(trimethylsilyl)benzamide] reads 0%; that for `CCNC(=O)c1c([Si](C)(C)C)ccc(Cl)c1F` [Example 218, 3-Chloro-N-ethyl-2-fluoro-6-(trimethylsilyl)benzamide], 99%.

Another data set has as its system Gaeumannomyces graminis var. tritici (Ggt). Kind of data set: In vitro Assay: mycelial growth of Ggt on minimal media agar plates containing test compound. The data set is classed as cell-based. As to conditions: Gaeumannomyces graminis; 0.1 ppm in minimal media agar; dark, 19-20° C., 4 to 5 days; diameter of mycelial growth; read-out: In vitro (ppm) 0.1, Percent Inhibition. Put shortly:
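Ggt mycelial diameter read after 4 to 5 days in darkness at 19-20° C, from three 4-mm plugs placed on Czapek Dox minimal agar containing test compound delivered in acetone. Inhibition expressed as percent versus untreated plates, plug size (4 mm) subtracted from both.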
As for `CC(CCl)NC(=O)c1c(Cl)cccc1[Si](C)(C)C` (centres unmarked) [Example 171, 2-Chloro-N-(2-chloro-1-methylethyl)-6-(trimethylsilyl)benzamide], the inhibition (commonly the relative decrease from the control value, in per cent) at 0.1 ppm is 48%.
Turning to `CCN(C(=O)c1c(Cl)cccc1[Si](C)(C)C)C(OC)C(C)(C)C` (centres unmarked) [Example 201, 2-Chloro-N-ethyl-N-(1-methoxy-2,2-dimethylpropyl)-6-(trimethylsilyl)benzamide], the inhibition at 0.1 ppm is 31%.
For the compound `C=C[Si](C)(c1ccccc1)c1cccc(Cl)c1C(=O)NCC` (centres unmarked) [Example 202, 2-Chloro-6-(ethenylmethylphenylsilyl)-N-ethylbenzamide], the inhibition at 0.1 ppm came out at 33%.
With `C=CCONC(=O)c1c([Si](C)(C)C)ccc(Cl)c1Cl` [Example 204, 2,3-Dichloro-N-(2-propenyloxy)-6-(trimethylsilyl)benzamide], the inhibition at 0.1 ppm is less than 0%.
Still for that read-out and setting: the result for `CCNC(=O)c1c(Cl)cccc1[Si](C)(C)CBr` [Example 210, 2-[(Bromomethyl)dimethylsilyl]-6-chloro-N-ethyl-benzamide] reads 85%; that for `CCN(C(=O)OC(C)(C)C)C(=O)c1c(Cl)cccc1[Si](C)(C)C` [Example 211, [2-Chloro-6-(trimethylsilyl)benzoyl]ethylcarbamic acid, 1,1-dimethylethyl ester], less than 0%; that for `CCNC(=O)c1c(Cl)cccc1[Si](C)(C)CC` [Example 212, 2-Chloro-N-ethyl-6-(ethyldimethylsilyl)benzamide], 77%.
Still for that read-out and setting: the result for `CCNC(=O)c1cc(Cl)ccc1[Si](C)(C)C` [Example 213, 5-Chloro-N-ethyl-2-(trimethylsilyl)benzamide] reads 9%.
On the same count and under the same terms, the result for `CCNC(=O)c1c(Cl)ccc([N+](=O)[O-])c1[Si](C)(C)C` [Example 215, 6-Chloro-N-ethyl-3-nitro-2-(trimethylsilyl)benzamide] reads 46%; that for `CCNC(=O)c1c([Si](C)(C)C)ccc([N+](=O)[O-])c1Cl` [Example 216, 2-Chloro-N-ethyl-3-nitro-6-(trimethylsilyl)benzamide], 25%; that for `CCNC(=O)c1cc(N)ccc1[Si](C)(C)C` [Example 217, 5-Amino-N-ethyl-2-(trimethylsilyl)benzamide], 16%.
Turning to `CCNC(=O)c1c([Si](C)(C)C)ccc(Cl)c1F` [Example 218, 3-Chloro-N-ethyl-2-fluoro-6-(trimethylsilyl)benzamide], the inhibition at 0.1 ppm was 18%.

The same data set, now with this note: Gaeumannomyces graminis; 1 ppm in minimal media agar; dark, 19-20° C., 4 to 5 days; diameter of mycelial growth; read-out: In vitro (ppm) 1, Percent Inhibition.
Take `CC(CCl)NC(=O)c1c(Cl)cccc1[Si](C)(C)C` (centres unmarked) [Example 171, 2-Chloro-N-(2-chloro-1-methylethyl)-6-(trimethylsilyl)benzamide]: the inhibition at 1 ppm is 88%.
Same read-out and setting: in the case of `CCN(C(=O)c1c(Cl)cccc1[Si](C)(C)C)C(OC)C(C)(C)C` (centres unmarked) [Example 201, 2-Chloro-N-ethyl-N-(1-methoxy-2,2-dimethylpropyl)-6-(trimethylsilyl)benzamide] it was 50%.
Take `C=C[Si](C)(c1ccccc1)c1cccc(Cl)c1C(=O)NCC` (centres unmarked) [Example 202, 2-Chloro-6-(ethenylmethylphenylsilyl)-N-ethylbenzamide]: the inhibition at 1 ppm is 58%.
Same read-out and setting: in the case of `C=CCONC(=O)c1c([Si](C)(C)C)ccc(Cl)c1Cl` [Example 204, 2,3-Dichloro-N-(2-propenyloxy)-6-(trimethylsilyl)benzamide] it was less than 0%; in that of `CCNC(=O)c1c(Cl)cccc1[Si](C)(C)CBr` [Example 210, 2-[(Bromomethyl)dimethylsilyl]-6-chloro-N-ethyl-benzamide], 88%.
As to `CCN(C(=O)OC(C)(C)C)C(=O)c1c(Cl)cccc1[Si](C)(C)C` [Example 211, [2-Chloro-6-(trimethylsilyl)benzoyl]ethylcarbamic acid, 1,1-dimethylethyl ester], the inhibition at 1 ppm stood at 82%.
Still for that read-out and setting: the result for `CCNC(=O)c1c(Cl)cccc1[Si](C)(C)CC` [Example 212, 2-Chloro-N-ethyl-6-(ethyldimethylsilyl)benzamide] reads 54%.
With `CCNC(=O)c1cc(Cl)ccc1[Si](C)(C)C` [Example 213, 5-Chloro-N-ethyl-2-(trimethylsilyl)benzamide], the inhibition at 1 ppm is 82%.
Consider `CCNC(=O)c1c(Cl)ccc([N+](=O)[O-])c1[Si](C)(C)C` [Example 215, 6-Chloro-N-ethyl-3-nitro-2-(trimethylsilyl)benzamide], for which the inhibition at 1 ppm is 96%.
Consider `CCNC(=O)c1c([Si](C)(C)C)ccc([N+](=O)[O-])c1Cl` [Example 216, 2-Chloro-N-ethyl-3-nitro-6-(trimethylsilyl)benzamide], for which the inhibition at 1 ppm turned out to be 54%.
Still for that read-out and setting: the result for `CCNC(=O)c1cc(N)ccc1[Si](C)(C)C` [Example 217, 5-Amino-N-ethyl-2-(trimethylsilyl)benzamide] reads 68%.
As to `CCNC(=O)c1c([Si](C)(C)C)ccc(Cl)c1F` [Example 218, 3-Chloro-N-ethyl-2-fluoro-6-(trimethylsilyl)benzamide], the inhibition at 1 ppm was determined as 94%.

Staying with this data set, now noted: Gaeumannomyces graminis; 10 ppm in minimal media agar; dark, 19-20° C., 4 to 5 days; diameter of mycelial growth; read-out: In vitro (ppm) 10, Percent Inhibition.
As for `CC(CCl)NC(=O)c1c(Cl)cccc1[Si](C)(C)C` (centres unmarked) [Example 171, 2-Chloro-N-(2-chloro-1-methylethyl)-6-(trimethylsilyl)benzamide], the inhibition at 10 ppm was 97%.
`CCN(C(=O)c1c(Cl)cccc1[Si](C)(C)C)C(OC)C(C)(C)C` (centres unmarked) [Example 201, 2-Chloro-N-ethyl-N-(1-methoxy-2,2-dimethylpropyl)-6-(trimethylsilyl)benzamide]: the inhibition at 10 ppm turned out to be 100%.
Same read-out and setting: in the case of `C=C[Si](C)(c1ccccc1)c1cccc(Cl)c1C(=O)NCC` (centres unmarked) [Example 202, 2-Chloro-6-(ethenylmethylphenylsilyl)-N-ethylbenzamide] it was 88%.
Consider `C=CCONC(=O)c1c([Si](C)(C)C)ccc(Cl)c1Cl` [Example 204, 2,3-Dichloro-N-(2-propenyloxy)-6-(trimethylsilyl)benzamide], for which the inhibition at 10 ppm turned out to be 74%.
Still for that read-out and setting: the result for `CCNC(=O)c1c(Cl)cccc1[Si](C)(C)CBr` [Example 210, 2-[(Bromomethyl)dimethylsilyl]-6-chloro-N-ethyl-benzamide] reads 94%; that for `CCN(C(=O)OC(C)(C)C)C(=O)c1c(Cl)cccc1[Si](C)(C)C` [Example 211, [2-Chloro-6-(trimethylsilyl)benzoyl]ethylcarbamic acid, 1,1-dimethylethyl ester], 90%.
Take `CCNC(=O)c1c(Cl)cccc1[Si](C)(C)CC` [Example 212, 2-Chloro-N-ethyl-6-(ethyldimethylsilyl)benzamide]: the inhibition at 10 ppm turned out to be 90%.
As to `CCNC(=O)c1cc(Cl)ccc1[Si](C)(C)C` [Example 213, 5-Chloro-N-ethyl-2-(trimethylsilyl)benzamide], the inhibition at 10 ppm was 79%.
With `CCNC(=O)c1c(Cl)ccc([N+](=O)[O-])c1[Si](C)(C)C` [Example 215, 6-Chloro-N-ethyl-3-nitro-2-(trimethylsilyl)benzamide], the inhibition at 10 ppm was 100%.
Same read-out and setting: the result for `CCNC(=O)c1c([Si](C)(C)C)ccc([N+](=O)[O-])c1Cl` [Example 216, 2-Chloro-N-ethyl-3-nitro-6-(trimethylsilyl)benzamide] reads 92%; that for `CCNC(=O)c1cc(N)ccc1[Si](C)(C)C` [Example 217, 5-Amino-N-ethyl-2-(trimethylsilyl)benzamide], 100%.
Still for that read-out and setting: the result for `CCNC(=O)c1c([Si](C)(C)C)ccc(Cl)c1F` [Example 218, 3-Chloro-N-ethyl-2-fluoro-6-(trimethylsilyl)benzamide] reads 100%.
